These results are taken from ChEMBL document CHEMBL1149680, “Unique spirocyclopiperazinium salt. Part 4: modification of dispirocyclopiperazinium (DSPZ) salts as analgesics” (Bioorg Med Chem Lett, 2007).

Assay [1] deals with Mus musculus. Briefly: Analgesic activity against acetic acid-induced writhing in mouse at 0.04 mmol/kg, sc relative to control. It is filed as functional.
Assay [2] has as its system Mus musculus. Kind of assay: Analgesic activity in mouse assessed as latency time at 0.04 mmol/kg, sc by hot plate method relative to control. It is filed as functional. Background: Hot-plate and tail-flick tests time the reaction to a heat stimulus.

By inhibition in vivo is commonly meant the percentage by which the read-out fell short of the control. Low values mean little suppression, high ones strong suppression. On to `C(CN1CC[N+]2(CCCC2)CC1)CN1CC[N+]2(CCCC2)CC1.[Br-].[Br-]`, for which the inhibition in vivo at 40 µmol/kg in assay [1] was determined as 81%. Besides, in assay [2], the Activity was determined as 64.2%.
